Columns and labels:
rat brain MAO-A = biological target: T1, rat brain MAO-A (Rattus norvegicus, UniProt P21396); assay: In vitro inhibition of rat brain MAO-A; format: biochemical; settings: rat brain homogenate, 60 min preincubation at 37° C., 14C-5-hydroxytryptamine
T1 construct: from tissue; host or cells: rat brain homogenate
T1 sequence (P21396 1-526): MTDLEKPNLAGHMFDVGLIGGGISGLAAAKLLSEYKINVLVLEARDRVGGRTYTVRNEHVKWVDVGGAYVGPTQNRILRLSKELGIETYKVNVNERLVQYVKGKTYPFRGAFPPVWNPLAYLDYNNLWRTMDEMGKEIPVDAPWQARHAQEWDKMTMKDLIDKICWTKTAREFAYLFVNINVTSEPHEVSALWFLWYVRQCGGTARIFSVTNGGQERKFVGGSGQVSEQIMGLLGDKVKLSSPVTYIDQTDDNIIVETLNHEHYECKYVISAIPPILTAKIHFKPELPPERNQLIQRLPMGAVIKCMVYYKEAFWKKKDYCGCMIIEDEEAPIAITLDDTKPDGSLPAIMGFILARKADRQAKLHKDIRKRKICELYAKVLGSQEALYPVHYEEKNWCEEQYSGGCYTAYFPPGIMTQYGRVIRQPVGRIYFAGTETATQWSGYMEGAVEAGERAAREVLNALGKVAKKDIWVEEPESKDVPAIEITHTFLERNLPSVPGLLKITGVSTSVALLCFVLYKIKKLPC
Description: (§1) To determine the activity of MAO-A and MAO-B, the test compound is added to a suitable dilution of the enzyme preparation from rat brain (70 μg protein for MAO-B and 150 μg MAO-A assay) in 0.05 M phosphate buffer (pH 7.4). Tthe mixture is incubated together with […], a specific inhibitor of MAO-B (for determination of MAO-A) or with […], a specific inhibitor of MAO-A (for determination of MAO-B). Incubation is carried for 1 h at 37° C. before addition of ^14C-5-hydroxytryptamine binoxalate ([…]), for determination of MAO-A, or ^14C-phenylethylamine ([…]), for determination of MAO-B, and incubation is continued for 30 min or 20 min, respectively. The reaction is stopped with 2 M ice-cold citric acid, and the metabolites are extracted and determined by liquid-scintillation counting in cpm units.
Thus, in one experiment, the in vitro inhibitory activity of 5-(4-propargylpiperazin-1-ylmethyl)-8-hydroxy-quinoline (HLA20) and the 8-hydroxyquinoline derivative designated M32 (both iron chelators disclosed in the International Application PCT/IL03/00932), and propargylamine (P) (0.1, 1, 10, 100 μM) were tested against rat brain MAO-A. The test compounds were added to buffer containing 0.05 μM deprenyl and were incubated with the tissue homogenate for 60 min at 37° C. before addition of ^14C-5-hydroxytryptamine. […]

rat brain MAO-B = biological target: T2, rat brain MAO-B (Rattus norvegicus, UniProt P19643); assay: In vitro inhibition of rat brain MAO-B; format: biochemical
T2 construct: from tissue; host or cells: rat brain homogenate
T2 sequence (P19643 1-520): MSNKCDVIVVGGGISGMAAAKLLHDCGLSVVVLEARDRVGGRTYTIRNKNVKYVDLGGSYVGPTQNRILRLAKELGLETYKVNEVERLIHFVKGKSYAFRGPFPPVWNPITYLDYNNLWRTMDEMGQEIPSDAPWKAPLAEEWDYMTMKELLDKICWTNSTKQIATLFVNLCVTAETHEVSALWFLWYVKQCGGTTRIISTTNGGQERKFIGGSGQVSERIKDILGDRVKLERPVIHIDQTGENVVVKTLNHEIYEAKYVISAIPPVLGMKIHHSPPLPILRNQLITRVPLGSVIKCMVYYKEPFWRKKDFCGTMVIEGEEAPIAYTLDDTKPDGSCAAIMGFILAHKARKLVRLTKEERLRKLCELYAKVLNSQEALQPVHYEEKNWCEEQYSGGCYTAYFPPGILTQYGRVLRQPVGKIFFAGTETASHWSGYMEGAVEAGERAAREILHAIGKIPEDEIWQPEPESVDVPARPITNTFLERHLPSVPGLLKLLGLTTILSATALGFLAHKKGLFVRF
Description: as §1
In another experiment, the in vitro inhibitory activity of propargylamine (P) against rat brain MAO-B was tested. Propargylamine (0.1, 1, 10, 100 μM) was added to buffer containing 0.05 μM clorgylin and was incubated with the tissue homogenate for 60 minutes at 37° C. before addition of ^14C-5-phenylethylamine. MAO-BA activity in presence of the test compound was expressed as a percentage of that in control samples. Mean values shown±SEM.

sAPPα = sAPPα release into medium of SH-SY5Y neuroblastoma cells; format: cell-based, human; settings: SH-SY5Y, 0.1, 1 and 10 μM, 3 h, versus untreated cells
Description: For the experiments, cells were seeded (2×10^6) onto 100-mm plates (for SH-SY5Y cells) or T75 flasks (for PC12 cells) in culture medium supplemented with full serum for 48 h. The cells were replaced with fresh medium containing 0.5% FCS for an additional 24 h (subconfluent culture), and then the experiments were performed in fresh medium containing 0.5% FCS for the indicated time periods at 37° C. After incubation with various drugs, the conditioned media were collected, centrifuged at 3500 g (10 min, 4° C.) to remove cell debris, and the cleared supernatants were concentrated 10-fold by lyophilization.
(vii) Determination of sAPP. Protein concentrations of cell lysates were assayed using Bradford reagent (Sigma Chemical). Equal amounts of volumes of conditioned medium, standardized to lysate protein, were subjected to […], using either the MAbs 22C11 or 6E10 in 50 mM Tris-HCl, pH 7.4, 150 mM NaCl, containing 0.05% Tween 20 and 1% BSA. Immunoreactivity was detected using anti-mouse IgG-conjugated with HRP and an enhanced chemiluminescence method (Amersham, Pharmacia Biotech, UK). Blots were developed for different times to span a linear range of response, and the relative intensity of immunoreactive bands on the exposed films was quantified by computer-assisted densitometry program (Quantity One, Bio-Rad, Hercules, Calif., USA).
It was of interest to determine whether rasagiline and other propargylamine-containing drugs also regulate APP processing. For this purpose, SH-SY5Y neuroblastoma cells were incubated for 3 h without or with 1 μM of various drugs (TV3326 and its S-isomer TV3279, rasagiline and its S-isomer TVP1022, selegiline, aminoindan), and sAPPα was measured in the media as described in Materials and Methods.
We further characterized, in detail, the effect of rasagiline on APP processing and the signaling pathways that are involved. Thus, SH-SY5Y neuroblastoma cells were incubated for 3 h without or with increasing concentrations of rasagiline (0.1, 1 and 10 μM), and sAPPα was measured in the media as described in Materials and Methods.
For the sAPPα release, SH-SY5Y neuroblastoma cells or PC12 cells were incubated for 3 h without or with increasing concentrations of propargylamine (0.1, 1 and 10 μM), and sAPPα was measured in the media as described in Materials and Methods.

SMILES: C#CCN [propargylamine]
- IC50 (rat brain MAO-A): ~66 µM
- MAO-B versus MAO-A selectivity (rat brain MAO-B; from IC50 values, rat brain): preferentially selective for MAO-B inhibition
- IC50 (rat brain MAO-B; rat brain homogenate, 60 min preincubation at 37° C., 14C-phenylethylamine): ~10 µM
- sAPPα released into the medium (sAPPα): significant, dose-dependent increase in sAPPα
